According to the supplement of paper PMC10307832:

Experiments:
Assay in all cases: relative viability (nuclei count vs DMSO), 5 days (fraction); higher = more cells survive
[1] = test system: ABC-1
Outline: (§1)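 Nuclei were stained with Hoechst during a one-step fixation (final 0.05% Triton X-100, 1% formaldehyde, 1 ug/ml Hoechst) carried out 5 days after dosing, then counted on 4× images. The cells, lung cancer lines in 1536-well plates, had been dosed by pin tool the day after seeding with one drug alone or a fixed anchor-drug dose plus five library-drug doses (not always all listed) in √10 steps. Relative viability is the nuclei count in treated wells divided by that in vehicle wells, and each value is the median of duplicate plates.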

[2] = test system: EMC-BAC-2
Outline: as §1

[3] = test system: NCI-H23
Outline: as §1

[4] = test system: Calu-6
Outline: as §1

[5] = test system: NCI-H1299
Outline: as §1

[6] = test system: HCC-78
Outline: as §1

[7] = test system: NCI-H1703
Outline: as §1

[8] = test system: A549
Outline: as §1

[9] = test system: NCI-H1437
Outline: as §1

[10] = test system: NCI-H661
Outline: as §1

[11] = test system: NCI-H1395
Outline: as §1

[12] = test system: EBC-1
Outline: as §1

[13] = test system: IA-LM
Outline: as §1

COCC1(CO)C(=O)C2CCN1CC2 (centres undefined) [PRIMA-1MET] + CS(=O)(=O)N1CCN(Cc2cc3nc(-c4cccc5[nH]ncc45)nc(N4CCOCC4)c3s2)CC1 [Pictilisib] (partner 1 µM)
relative viability ([1]; first compound 0.2 µM): 0.71 | relative viability ([1]; first compound 0.6325 µM): 0.5 | relative viability ([1]; first compound 2 µM): 0.558 | relative viability ([1]; first compound 6.325 µM): 0.669 | relative viability ([1]; first compound 20 µM): 0.55 | relative viability ([2]; first compound 0.2 µM): 0.608 | relative viability ([2]; first compound 0.6325 µM): 0.503 | relative viability ([2]; first compound 2 µM): 0.343 | relative viability ([2]; first compound 6.325 µM): 0.566 | relative viability ([2]; first compound 20 µM): 0.583 | relative viability ([3]; first compound 0.2 µM): 0.361 | relative viability ([3]; first compound 0.6325 µM): 0.403 | relative viability ([3]; first compound 2 µM): 0.323 | relative viability ([3]; first compound 6.325 µM): 0.334 | relative viability ([3]; first compound 20 µM): 0.138 | relative viability ([4]; first compound 0.2 µM): 0.945 | relative viability ([4]; first compound 0.6325 µM): 0.873 | relative viability ([4]; first compound 2 µM): 1.07 | relative viability ([4]; first compound 6.325 µM): 0.917 | relative viability ([4]; first compound 20 µM): 0.563 | relative viability ([5]; first compound 0.2 µM): 0.956 | relative viability ([5]; first compound 0.6325 µM): 0.782 | relative viability ([5]; first compound 2 µM): 0.345 | relative viability ([5]; first compound 6.325 µM): 0.808 | relative viability ([5]; first compound 20 µM): 0.0251 | relative viability ([6]; first compound 0.2 µM): 0.226 | relative viability ([6]; first compound 0.6325 µM): 0.222 | relative viability ([6]; first compound 6.325 µM): 0.138 | relative viability ([6]; first compound 20 µM): 0.0597 | relative viability ([7]; first compound 0.2 µM): 0.275 | relative viability ([7]; first compound 2 µM): 0.255 | relative viability ([7]; first compound 6.325 µM): 0.293 | relative viability ([7]; first compound 20 µM): 0.0333 | relative viability ([8]; first compound 0.2 µM): 0.581 | relative viability ([8]; first compound 0.6325 µM): 0.403 | relative viability ([8]; first compound 2 µM): 0.497 | relative viability ([8]; first compound 6.325 µM): 0.543 | relative viability ([8]; first compound 20 µM): 0.421 | relative viability ([9]; first compound 0.2 µM): 0.463 | relative viability ([9]; first compound 0.6325 µM): 0.481 | relative viability ([9]; first compound 2 µM): 0.356 | relative viability ([9]; first compound 6.325 µM): 0.466 | relative viability ([9]; first compound 20 µM): 0.412 | relative viability ([10]; first compound 0.2 µM): 0.396 | relative viability ([10]; first compound 0.6325 µM): 0.238 | relative viability ([10]; first compound 6.325 µM): 0.447 | relative viability ([10]; first compound 20 µM): 0.262 | relative viability ([11]; first compound 0.2 µM): 0.613 | relative viability ([11]; first compound 0.6325 µM): 0.458 | relative viability ([11]; first compound 2 µM): 0.602 | relative viability ([11]; first compound 6.325 µM): 0.518 | relative viability ([11]; first compound 20 µM): 0.383 | relative viability ([12]; first compound 0.2 µM): 0.414 | relative viability ([12]; first compound 0.6325 µM): 0.381 | relative viability ([12]; first compound 2 µM): 0.402 | relative viability ([12]; first compound 6.325 µM): 0.434 | relative viability ([12]; first compound 20 µM): 0.12 | relative viability ([13]; first compound 0.2 µM): 0.476 | relative viability ([13]; first compound 0.6325 µM): 0.253 | relative viability ([13]; first compound 2 µM): 0.355 | relative viability ([13]; first compound 6.325 µM): 0.404 | relative viability ([13]; first compound 20 µM): 0.326

COCC1(CO)C(=O)C2CCN1CC2 (centres undefined) [PRIMA-1MET] + C[C@@H](Oc1cc(-c2cnn(C3CCNCC3)c2)cnc1N)c1c(Cl)ccc(F)c1Cl [Crizotinib] (partner 1 µM)
relative viability ([1]; first compound 0.2 µM): 1.39 | relative viability ([1]; first compound 0.6325 µM): 1.22 | relative viability ([1]; first compound 2 µM): 0.945 | relative viability ([1]; first compound 6.325 µM): 0.908 | relative viability ([1]; first compound 20 µM): 0.555 | relative viability ([2]; first compound 0.2 µM): 0.837 | relative viability ([2]; first compound 0.6325 µM): 0.779 | relative viability ([2]; first compound 2 µM): 0.666 | relative viability ([2]; first compound 6.325 µM): 0.771 | relative viability ([2]; first compound 20 µM): 0.793 | relative viability ([3]; first compound 0.2 µM): 0.599 | relative viability ([3]; first compound 0.6325 µM): 0.471 | relative viability ([3]; first compound 2 µM): 0.48 | relative viability ([3]; first compound 6.325 µM): 0.406 | relative viability ([3]; first compound 20 µM): 0.104 | relative viability ([4]; first compound 0.2 µM): 0.795 | relative viability ([4]; first compound 0.6325 µM): 0.901 | relative viability ([4]; first compound 2 µM): 0.825 | relative viability ([4]; first compound 6.325 µM): 0.886 | relative viability ([4]; first compound 20 µM): 0.627 | relative viability ([5]; first compound 0.2 µM): 0.988 | relative viability ([5]; first compound 0.6325 µM): 0.728 | relative viability ([5]; first compound 2 µM): 1 | relative viability ([5]; first compound 6.325 µM): 0.978 | relative viability ([5]; first compound 20 µM): 0.955 | relative viability ([6]; first compound 0.2 µM): 0.427 | relative viability ([6]; first compound 0.6325 µM): 0.34 | relative viability ([6]; first compound 6.325 µM): 0.353 | relative viability ([6]; first compound 20 µM): 0.0613 | relative viability ([7]; first compound 0.2 µM): 0.749 | relative viability ([7]; first compound 0.6325 µM): 0.861 | relative viability ([7]; first compound 2 µM): 0.784 | relative viability ([7]; first compound 6.325 µM): 0.377 | relative viability ([7]; first compound 20 µM): 0.0587 | relative viability ([8]; first compound 0.2 µM): 0.961 | relative viability ([8]; first compound 0.6325 µM): 0.577 | relative viability ([8]; first compound 2 µM): 0.813 | relative viability ([8]; first compound 6.325 µM): 0.817 | relative viability ([8]; first compound 20 µM): 0.746 | relative viability ([9]; first compound 0.2 µM): 1.07 | relative viability ([9]; first compound 0.6325 µM): 0.896 | relative viability ([9]; first compound 2 µM): 0.9 | relative viability ([9]; first compound 6.325 µM): 0.991 | relative viability ([9]; first compound 20 µM): 0.862 | relative viability ([10]; first compound 0.2 µM): 1.15 | relative viability ([10]; first compound 6.325 µM): 1.11 | relative viability ([10]; first compound 20 µM): 0.999 | relative viability ([12]; first compound 0.2 µM): 0.19 | relative viability ([12]; first compound 0.6325 µM): 0.174 | relative viability ([12]; first compound 2 µM): 0.197 | relative viability ([12]; first compound 6.325 µM): 0.192 | relative viability ([12]; first compound 20 µM): 0.212 | relative viability ([13]; first compound 0.2 µM): 0.856 | relative viability ([13]; first compound 0.6325 µM): 0.868 | relative viability ([13]; first compound 2 µM): 0.955 | relative viability ([13]; first compound 6.325 µM): 0.851 | relative viability ([13]; first compound 20 µM): 0.838
